Experiments:
Type in all cases: in vivo, mouse
[1] = tested on: Abcc4; assay: Hepatic RNA-Seq differential gene expression (fold change, P1(t), ED50, BMD, BMDL); conditions: C57BL/6, mouse, liver, oral; male mice, 30 µg/kg TCDD every 4 d for 28 d
Description: (§1) Frozen ileal epithelium scrapings and liver samples were homogenized in TRIzol (Ambion, Waltham, MA) using a Mixer Mill 300 tissue homogenizer (Retsch, Germany) and total RNA was isolated as previously described. RNA was quantified using a Nano-drop spectrophotometer (Thermo Scientific, Wilmington, DE) at 260 nm, and purity was assessed using the A260/A280 ratio and the Caliper LabChip GX (Perkin Elmer, Waltham, MA).
(§2) Dose-dependent gene expression was examined using RNA-Seq performed at the MSU Research Technology Support Facility (RTSF) Genomics Core (rtsf.natsci.msu.edu/genomics). Ileal libraries from three independent biological replicates (n = 3) were prepared using the Ovation Mouse RNA-Seq System 1–16 sample preparation kit (NuGen, San Carlos, CA), with an additional DNase step. Libraries were quantified and sequenced as previously described, using a read depth of ~30 M per sample[33], [67]. Quality was determined using FASTQC v0.11.3 and adaptor sequences were removed using Trimmomatic v0.33. Reads were mapped to the mouse reference genome (GRCm38 release 81) using Bowtie2 v2.2.6 and TopHat2 v2.1.0. Alignments were converted to SAM format using SAMTools v1.2.0. For TCDD-mediated differential gene expression, fold changes were calculated relative to vehicle controls. Hepatic RNA-Seq analysis was previously published. Genes were considered differentially expressed if |fold change| ≥ 1.5 and statistical P1(t) value ≥ 0.8 at one or more doses. RNA-Seq datasets for the ileal epithelium and liver were deposited in the Gene Expression Omnibus (GEO; accession number GSE89430 and GSE87519, respectively). The RNA-Seq results (fold changes, P1(t) values) for each gene discussed in the manuscript have been compiled in Supplementary Table S1. […] Estimation of benchmark dose (BMD) and BMD lower confidence limit (BMDL) was performed using BMDExpress[69] as previously described, and has been included in Supplementary Table S1.

[2] = tested on: Cyp39a1; assay: as above; conditions: C57BL/6, mouse, liver, oral; male mice, TCDD every 4 d for 28 d
Description: as §1, §2

[3] = tested on: Slc10a2; assay: Ileal epithelium RNA-Seq differential gene expression (fold change, P1(t), ED50, BMD, BMDL); design: key to Cyp3a44 P1(t)_30: statistical P1(t) value; differentially expressed if ≥ 0.8; conditions: C57BL/6, mouse, ileal epithelium, oral; male mice, TCDD every 4 d for 28 d
Description: as §1, §2

[4] = tested on: Slc51a; assay: as above; design: key to Cyp3a44 P1(t)_30: statistical P1(t) value; differentially expressed if ≥ 0.8; conditions: C57BL/6, mouse, ileal epithelium, oral; male mice, TCDD every 4 d for 28 d
Description: as §1, §2

[5] = tested on: ileal gene expression; assay: as above; design: key to Cyp3a44 P1(t)_30: statistical P1(t) value; differentially expressed if ≥ 0.8
Description: as §1, §2

[6] = ileum, 0.01 µg/kg TCDD, relative to vehicle control
[7] = ileum, 0.03 µg/kg TCDD, relative to vehicle control
[8] = ileum, 0.1 µg/kg TCDD, relative to vehicle control
[9] = ileum, 0.3 µg/kg TCDD, relative to vehicle control
[10] = ileum, 1 µg/kg TCDD, relative to vehicle control
[11] = ileum, 3 µg/kg TCDD, relative to vehicle control
[12] = ileum, 10 µg/kg TCDD, relative to vehicle control
[13] = ileum, 30 µg/kg TCDD, relative to vehicle control
[14] = male mice, TCDD every 4 d for 28 d

Work on Clc1cc2c(cc1Cl)Oc1cc(Cl)c(Cl)cc1O2 [TCDD, 2,3,7,8-tetrachlorodibenzo-p-dioxin] yielded a fold induction at 28 d [1] of 58.1, a fold induction at 28 d [2] of 2.1 and a fold induction at 28 d [3] of 1.6. For the same molecule, the fold induction at 28 d [4] was 1.5, the “Cyp3a44 BMD” value ([5]; ileum) was 36.49 µg/kg TCDD and the “Cyp3a44 BMDL” value ([5]; ileum) was 18.80 µg/kg TCDD. The “Cyp3a44 Differentially Expressed?” value ([5]; ileum) was “YES”, the “Cyp3a44 ED50” value ([5]; ileum) was “Not sigmoidal” and the “Fgf15 BMD” value ([5]; ileum) was “No model fit”. The “Fgf15 BMDL” value ([5]; ileum) was “No model fit”, the “Fgf15 Differentially Expressed?” value ([5]; ileum) was “YES” and the “Fgf15 ED50” value ([5]; ileum) was 9.00 µg/kg TCDD. For the same molecule, the “Slc10a2 (ASBT or IBAT) BMD” value ([5]; ileum) was 5.66 µg/kg TCDD, the “Slc10a2 (ASBT or IBAT) BMDL” value ([5]; ileum) was 0.69 µg/kg TCDD and the “Slc10a2 (ASBT or IBAT) Differentially Expressed?” value ([5]; ileum) was “YES”. For the same molecule, the “Slc10a2 (ASBT or IBAT) ED50” value ([5]; ileum) was 0.98 µg/kg TCDD, the “Slc51a (OSTα) BMD” value ([5]; ileum) was “No model fit” and the “Slc51a (OSTα) BMDL” value ([5]; ileum) was “No model fit”. For the same molecule, the “Slc51a (OSTα) Differentially Expressed?” value ([5]; ileum) was “YES”, the “Slc51a (OSTα) ED50” value ([5]; ileum) was 0.89 µg/kg TCDD and the “Cyp3a44 P1(t)_0.01” value ([5]; ileum, 0.01 µg/kg TCDD) was -0.1316. For the same molecule, the “Cyp3a44 FC_0.01” value [5, 6] was 0.91, the “Fgf15 FC_0.01” value [5, 6] was 0.81 and the “Slc10a2 (ASBT or IBAT) FC_0.01” value [5, 6] was 0.93. The “Slc51a (OSTα) FC_0.01” value [5, 6] was 0.98, the “Slc51b (OSTβ) FC_0.01” value [5, 6] was 0.88 and the “Cyp3a44 P1(t)_0.03” value ([5]; ileum, 0.03 µg/kg TCDD) was 0.0640. For the same molecule, the “Cyp3a44 FC_0.03” value [5, 7] was 0.80, the “Fgf15 FC_0.03” value [5, 7] was 0.63 and the “Slc10a2 (ASBT or IBAT) FC_0.03” value [5, 7] was 0.93. For the same molecule, the “Slc51a (OSTα) FC_0.03” value [5, 7] was 0.96, the “Slc51b (OSTβ) FC_0.03” value [5, 7] was 0.87 and the “Cyp3a44 P1(t)_0.1” value ([5]; ileum, 0.1 µg/kg TCDD) was -0.1090. The “Cyp3a44 FC_0.1” value [5, 8] was 0.89, the “Fgf15 FC_0.1” value [5, 8] was 0.85 and the “Slc10a2 (ASBT or IBAT) FC_0.1” value [5, 8] was 0.92. For the same molecule, the “Slc51a (OSTα) FC_0.1” value [5, 8] was 0.98, the “Slc51b (OSTβ) FC_0.1” value [5, 8] was 0.88 and the “Cyp3a44 P1(t)_0.3” value ([5]; ileum, 0.3 µg/kg TCDD) was 0.6027. For the same molecule, the “Cyp3a44 FC_0.3” value [5, 9] was 0.61, the “Fgf15 FC_0.3” value [5, 9] was 1.12 and the “Slc10a2 (ASBT or IBAT) FC_0.3” value [5, 9] was 0.74. The “Slc51a (OSTα) FC_0.3” value [5, 9] was 1.07, the “Slc51b (OSTβ) FC_0.3” value [5, 9] was 0.88 and the “Cyp3a44 P1(t)_1” value ([5]; ileum, 1 µg/kg TCDD) was 0.5083. For the same molecule, the “Cyp3a44 FC_1” value [5, 10] was 0.65, the “Fgf15 FC_1” value [5, 10] was 1.50 and the “Slc10a2 (ASBT or IBAT) FC_1” value [5, 10] was 1.19. For the same molecule, the “Slc51a (OSTα) FC_1” value [5, 10] was 1.30, the “Slc51b (OSTβ) FC_1” value [5, 10] was 0.90 and the “Cyp3a44 P1(t)_3” value ([5]; ileum, 3 µg/kg TCDD) was -0.1130. The “Cyp3a44 FC_3” value [5, 11] was 1.12, the “Fgf15 FC_3” value [5, 11] was 1.99 and the “Slc10a2 (ASBT or IBAT) FC_3” value [5, 11] was 1.22. The “Slc51a (OSTα) FC_3” value [5, 11] was 1.46, the “Slc51b (OSTβ) FC_3” value [5, 11] was 0.95 and the “Cyp3a44 P1(t)_10” value ([5]; ileum, 10 µg/kg TCDD) was 0.9033. For the same molecule, the “Cyp3a44 FC_10” value [5, 12] was 0.46, the “Fgf15 FC_10” value [5, 12] was 0.51 and the “Slc10a2 (ASBT or IBAT) FC_10” value [5, 12] was 1.38. For the same molecule, the “Slc51a (OSTα) FC_10” value [5, 12] was 1.34, the “Slc51b (OSTβ) FC_10” value [5, 12] was 0.93 and the “Cyp3a44 P1(t)_30” value ([5]; ileum, 30 µg/kg TCDD) was 0.7035. The “Cyp3a44 FC_30” value [5, 13] was 0.58, the “Fgf15 FC_30” value [5, 13] was 0.10 and the “Slc10a2 (ASBT or IBAT) FC_30” value [5, 13] was 1.59. For the same molecule, the “Slc51a (OSTα) FC_30” value [5, 13] was 1.15, the “Slc51b (OSTβ) FC_30” value [5, 13] was 0.79 and the “Cyp3a44 ileal expression, fold repression” value [5, 14] was 2.2 fold. For the same molecule, the Slc51b ileal expression [5, 14] was “unchanged”.

Source: PMC5517430, “2,3,7,8-Tetrachlorodibenzo-p-dioxin (TCDD)-elicited effects on bile acid homeostasis: Alterations in biosynthesis, enterohepatic circulation, and microbial metabolism” (Scientific Reports, 2017)
